The conditions of data set [1]: for Normal melting temperature: Crystal 1, visual observation.
A short description of data set [2]: Molar enthalpy of transition or fusion. The conditions noted are these: Crystal.

Structures are written as SMILES. ± gives the expanded uncertainty stated by the source.

`Cc1nc2ccccc2[nH]1` [2-methylbenzimidazole]: in data set [1], the Normal melting temperature was determined as 178.28 ± 0.5 °C. On to `Cc1ncc[nH]1` [2-methylimidazole], for which the Normal melting temperature in data set [1] came to 146 ± 0.5 °C. As for `c1ccc(-c2nc[nH]c2-c2ccccc2)cc1` [4,5-diphenylimidazole], the Triple point temperature in data set [1] (Crystal) is listed as 504.84 ± 1 K. Besides, the “Molar enthalpy of transition or fusion” value in data set [2] was 34.2 ± 1.9 kJ/mol. As to `c1ccc2[nH]cnc2c1` [benzimidazole], the Normal melting temperature in data set [1] was determined as 172.36 ± 0.5 °C.

These data come from the NIST ThermoML archive (doi:10.1021/je049907t).
